Positions of bridges follow the written chain, without caps; N, C: chain ends. Residues, ends and D or L forms follow the SMILES beside them. No end group written: not given here.
Key:
[1] = tested on: human zona-free oocytes and spermatozoa; type: cell-based
Description: (§1) Patients donated said oocytes for research purposes and signed a consent form approved by the Institutional Review Board of the Aulnay-sous-Bois hospital.
These oocytes aged 48 hours or matured in vitro were not or were no longer capable of producing an embryo. Moreover, the polyspermy blocking mechanism which ensures that the embryo will be diploid is located in the zona pellucida of the oocyte. By removing the zona pellucida of these oocytes, this protective mechanism is abolished, leading to nonviable polyspermic zygotes in the event of gamete fusion. Finally, as embryo development occurs inside the zona pellucida for the first six days, the absence of the latter precludes said development from taking place.
(§2) To maintain the oocyte membrane as close as possible to its natural state, the inventors removed the zona pellucida mechanically with microsurgical scissors.
Sperm from fertile donors was collected after three days of abstinence and prepared as for IVF. […]
Functional tests of inhibition of fusion were carried out in conditions similar to those used for IVF, that is, in conditions sufficiently close to physiological conditions since they enable pregnancy and fetuses. […] The slides were analyzed under a Zeiss Axiophot microscope equipped with a camera connected to Imaging System Package image analysis software (Applied Imaging, Newcastle-upon-Tyne, UK). […]

[2] = tested on: human oocyte membrane; experiment: Detection of biotinylated FEEc peptide at the surface of human oocytes (immunofluorescence, confocal microscopy); type: binding; conditions: 200 μM biotinylated peptide, 45 minutes, FIG. 1
Description: as §1, §2
The oocytes were incubated with 200 μM biotinylated FEEc peptide for 45 minutes.
The zona pellucida was mechanically removed from the oocytes which were then incubated for 45 minutes with […] biotinylated peptide. The FEEc peptide was detected with a mouse anti-biotin antibody recognized by a biotinylated anti-mouse immunoglobulin antibody then by streptavidin-FITC. The oocytes were then mounted in immunomount between the coverslip and the slide and examined under a confocal microscope, B: superimposition of sections corresponding to a hemi-oocyte.

| Compound | toxic effect on oocytes [1] | labelling of the oocyte membrane with the peptide [2] |
| --- | --- | --- |
| N[C@H]1CSSC[C@@H](C(=O)O)NC(=O)[C@H](CCC(=O)O)NC(=O)[C@H](CCC(=O)O)NC(=O)[C@H](Cc2ccccc2)NC(=O)[C@H](CO)NC1=O [FEEc, CSFEEC] (H-CSFEEC-OH; disulfide 1-6) | no toxic effect on oocytes |  |
| biotinylated FEEc: FEEc cyclic peptide labelled with biotin for detection on oocytes (CSFEEC; disulfide 1-6 (inferred); also: biotinylated (position not given here)) |  | labelling of the membrane |
